The record followed here is US20240238310A1, “MODULATION OF SEX STEROID HORMONE PRODUCTION AND ACTIVITY FOR TREATING AND PREVENTING HERNIAS” (Northwestern University, priority 2020, published 2024).

This assay deals with Arom^hum mice. The following applies: 3 weeks old mice; high-dose DHT via injection for 53 days; vs vehicle; p<0.005.

Experimental: 3-week-old mice were treated with vehicle (Veh) or DHT for 53 days.

On to `C[C@]12CCC(=O)C[C@@H]1CC[C@@H]1[C@@H]2CC[C@]2(C)[C@@H](O)CC[C@@H]12` [DHT, dihydrotestosterone], for which the hernia volume entry is “significantly decreased”.
